40 substances from patent US20260240976A1, “T[…] VACCINES BASED ON VALIDATED TARGET EPITOPES” (Deutsches Krebsforschungszentrum Stiftung des öffentlichen …, priority 2023, published 2026) can be followed below.

The first assay has as its system short-term antigen-specific T cell lines generated from PBMCs. Put plainly: Interferon-γ ELISpot assay on short-term antigen-specific T cell lines. For ELISpot: Immungenicity of the peptide shown by IFN-gamma ELISPOT analysis: key: +: ELISPOT: Immungenicity of the peptide shown by IFN-gamma ELISPOT analysis; +*: *highlights data from published resources; *highlights data from published resources. Format: cell-based, human. Conditions: HLA restriction A01.
Consider “8 (SKISEYRHYCY; Human papillomavirus 16) [compound 8]”, for which the “ELISpot: Immungenicity of the peptide shown by IFN-gamma ELISPOT analysis” value (from here on “ELISpot: Immungenicity”) is recorded as “+”.
Take “132 (TTDLYCYEQL; Human papillomavirus 16) [compound 132]”: the “ELISpot: Immungenicity” value is “+”.

The same assay, now with this note: HLA restriction A02.
Regarding “51 (TLHEYMLDLQP; Human papillomavirus 16) [compound 51]”, the “ELISpot: Immungenicity” value is reported as “+”.
In the case of “48 (ELQTTIHDI; Human papillomavirus 16) [compound 48]”, the “ELISpot: Immungenicity” value was “+”.
For the substance “47 (KLPQLCTELQT; Human papillomavirus 16) [compound 47]”, the “ELISpot: Immungenicity” value is recorded as “+”.

Still in this assay, the particulars now being: HLA restriction A03.
For “67 (MFQDPQERPRK; Human papillomavirus 16) [compound 67]”, the “ELISpot: Immungenicity” value was “+”.
Take “69 (AVCDKCLK; Human papillomavirus 16) [compound 69]”: the “ELISpot: Immungenicity” value is listed as “+”.
For the substance “53 (CVYCKQQLLR; Human papillomavirus 16) [compound 53]”, the “ELISpot: Immungenicity” value is listed as “+”.
On to “72 (KFYSKISEYR; Human papillomavirus 16) [compound 72]”, for which the “ELISpot: Immungenicity” value is “+”.
Regarding “136 (GTTLEQQYNK; Human papillomavirus 16) [compound 136]”, the “ELISpot: Immungenicity” value is listed as “+”.
With “78 (KQRFHNIRGR; Human papillomavirus 16) [compound 78]”, the “ELISpot: Immungenicity” value was “+”.
The same measure, in the same setting: in the case of “54 (TTLEQQYNK; Human papillomavirus 16) [compound 54]” it was “+”.
Still for that read-out and setting: with “76 (LIRCINCQK; Human papillomavirus 16) [compound 76]” the entry was “+”.
Regarding “77 (RCINCQKPLCP; Human papillomavirus 16) [compound 77]”, the “ELISpot: Immungenicity” value is given as “+”.

Still in this assay, the particulars now being: HLA restriction A11.
For “68 (YAVCDKCLKFY; Human papillomavirus 16) [compound 68]”, the “ELISpot: Immungenicity” value was “+”.
Turning to “79 (LGIVCPICSQK; Human papillomavirus 16) [compound 79]”, the “ELISpot: Immungenicity” value was “+”.

Still in this assay, the particulars now being: HLA restriction A24.
Take “96 (AHYNIVTF; Human papillomavirus 16) [compound 96]”: the “ELISpot: Immungenicity” value is recorded as “+”.
“94 (HLDKKQRFHNI; Human papillomavirus 16) [compound 94]”: the “ELISpot: Immungenicity” value is given as “+”.
As to “138 (HYNIVTFC; Human papillomavirus 16) [compound 138]”, the “ELISpot: Immungenicity” value is on record as “+”.
Turning to “95 (DKKQRFHN; Human papillomavirus 16) [compound 95]”, the “ELISpot: Immungenicity” value is recorded as “+”.
On the same count and under the same terms, in the case of “93 (YSLYGTTL; Human papillomavirus 16) [compound 93]” it was “+”.

The assay is the same for the next values; noted with them: HLA restriction B07.
In the case of “143 (LPQLCTELQT; Human papillomavirus 16) [compound 143]”, the “ELISpot: Immungenicity” value is reported as “+”.
For the substance “105 (KPLCDLLI; Human papillomavirus 16) [compound 105]”, the “ELISpot: Immungenicity” value is “+”.

The same assay, now with this note: HLA restriction B15.
As to “123 (FYSKISEY; Human papillomavirus 16) [compound 123]”, the “ELISpot: Immungenicity” value is on record as “+”.
Still for that read-out and setting: in the case of “126 (SEYRHYCY; Human papillomavirus 16) [compound 126]” it was “+”; in that of “122 (CLKFYSKISEY; Human papillomavirus 16) [compound 122]”, “+”; in that of “130 (KQRFHNIRGRW; Human papillomavirus 16) [compound 130]”, “+”.
As to “118 (LLRREVYDFAF; Human papillomavirus 16) [compound 118]”, the “ELISpot: Immungenicity” value is “+”.
As for “147 (AGQAEPDRAHY; Human papillomavirus 16) [compound 147]”, the “ELISpot: Immungenicity” value is recorded as “+”.
In the case of “146 (RGRWTGRCM; Human papillomavirus 16) [compound 146]”, the “ELISpot: Immungenicity” value is “+”.
“121 (AVCDKCLKF; Human papillomavirus 16) [compound 121]”: the “ELISpot: Immungenicity” value was “+”.
Turning to “124 (YSKISEYRHY; Human papillomavirus 16) [compound 124]”, the “ELISpot: Immungenicity” value is “+”.
Take “131 (GQAEPDRAH; Human papillomavirus 16) [compound 131]”: the “ELISpot: Immungenicity” value is listed as “+”.
Turning to “12 (TLHEYMLDL; Human papillomavirus 16) [compound 12]”, the “ELISpot: Immungenicity” value is given as “+”.
Regarding “129 (KQRHLDKKQRF; Human papillomavirus 16) [compound 129]”, the “ELISpot: Immungenicity” value was “+”.

Still in this assay, the particulars now being: comparison among the peptides in Table 1.
As for “53 (CVYCKQQLLR; Human papillomavirus 16) [compound 53]”, the “rates of immunoactivation in PBMC samples, CD8 T cell responses and/or numbers of HPV16 positive cell lines presenting the peptide as HLA-complexes” value (“rates of immunoactivation” for short) was “highest rates of immunoactivation in PBMC samples, to induce the strongest CD8 T cell responses, and/or shown to be presented as HLA-complexes by the highest numbers of HPV16 positive cell lines”.
Same read-out and setting: in the case of “80 (VYCKQQLL; Human papillomavirus 16) [compound 80]” it was “highest rates of immunoactivation in PBMC samples, to induce the strongest CD8 T cell responses, and/or shown to be presented as HLA-complexes by the highest numbers of HPV16 positive cell lines”; in that of “1 (ISEYRHYCY; Human papillomavirus 16) [compound 1]”, “highest rates of immunoactivation in PBMC samples, to induce the strongest CD8 T cell responses, and/or shown to be presented as HLA-complexes by the highest numbers of HPV16 positive cell lines”; in that of “13 (YMLDLQPET; Human papillomavirus 16) [compound 13]”, “highest rates of immunoactivation in PBMC samples, to induce the strongest CD8 T cell responses, and/or shown to be presented as HLA-complexes by the highest numbers of HPV16 positive cell lines”.
For “11 (TIHDIILECV; Human papillomavirus 16) [compound 11]”, the “rates of immunoactivation” value is recorded as “highest rates of immunoactivation in PBMC samples, to induce the strongest CD8 T cell responses, and/or shown to be presented as HLA-complexes by the highest numbers of HPV16 positive cell lines”.
For the substance “54 (TTLEQQYNK; Human papillomavirus 16) [compound 54]”, the “rates of immunoactivation” value was “highest rates of immunoactivation in PBMC samples, to induce the strongest CD8 T cell responses, and/or shown to be presented as HLA-complexes by the highest numbers of HPV16 positive cell lines”.
For “82 (EYRHYCYSL; Human papillomavirus 16) [compound 82]”, the “rates of immunoactivation” value is on record as “highest rates of immunoactivation in PBMC samples, to induce the strongest CD8 T cell responses, and/or shown to be presented as HLA-complexes by the highest numbers of HPV16 positive cell lines”.
